Test: wn = mass fraction of the nth substance listed
Settings: Liquid; for mass density: Vibrating tube method

CN(CCO)CCO [N-methyldiethanolamine] + O
mass density [kg/m3]
Settings | w1 = 0.1 | w1 = 0.2002 | w1 = 0.3 | w1 = 0.4
333.15 K, 60000 kPa | – | – | – | 1035
333.15 K, 70000 kPa | 1017.9 | 1024.4 | 1031.5 | 1038.4
333.15 K, 80000 kPa | 1021.6 | 1027.9 | 1034.9 | 1041.6
333.15 K, 90000 kPa | 1025.1 | 1031.3 | 1038.1 | 1044.9
333.15 K, 100000 kPa | 1028.5 | 1034.7 | 1041.6 | 1048.2
333.15 K, 110000 kPa | 1031.9 | 1038 | 1044.6 | 1051.3
333.15 K, 120000 kPa | 1035.4 | 1041.4 | 1047.9 | 1054.5
333.15 K, 130000 kPa | 1038.7 | 1044.5 | 1051 | 1057.5
333.15 K, 140000 kPa | 1042 | 1047.7 | 1054.2 | 1060.6
353.15 K, 100 kPa | 978.6 | 985.3 | 992 | 998.1
353.15 K, 500 kPa | 978.7 | 985.3 | 992 | 998.2
353.15 K, 1000 kPa | 978.9 | 985.5 | 992.2 | 998.4
353.15 K, 2000 kPa | 979.3 | 985.9 | 992.7 | 998.8
353.15 K, 5000 kPa | 980.6 | 987.2 | 993.9 | 1000.1
353.15 K, 10000 kPa | 982.8 | 989.4 | 996.1 | 1002.3
353.15 K, 15000 kPa | 984.9 | 991.5 | 998.2 | 1004.4
353.15 K, 20000 kPa | 987 | 993.5 | 1000.3 | 1006.5
353.15 K, 30000 kPa | 991.2 | 997.6 | 1004.3 | 1010.5
353.15 K, 40000 kPa | 995.2 | 1001.6 | 1008.1 | 1014.4
353.15 K, 50000 kPa | 999.1 | 1005.5 | 1012 | 1018.2
353.15 K, 60000 kPa | 1003.1 | 1009.3 | 1015.9 | 1022
353.15 K, 70000 kPa | 1006.9 | 1012.9 | 1019.5 | 1025.6
353.15 K, 80000 kPa | 1010.5 | 1016.6 | 1023 | 1029.1
353.15 K, 90000 kPa | 1014 | 1020 | 1026.4 | 1032.6
353.15 K, 100000 kPa | 1017.7 | 1023.6 | 1029.9 | 1036
353.15 K, 110000 kPa | 1021.2 | 1027 | 1033.3 | 1039.3
353.15 K, 120000 kPa | 1024.6 | 1030.4 | 1036.6 | 1042.5
353.15 K, 130000 kPa | 1028 | 1033.6 | 1039.8 | 1045.8
353.15 K, 140000 kPa | 1031.2 | 1036.8 | 1042.9 | 1048.9
373.15 K, 100 kPa | 964.4 | 970.5 | 976.5 | 981.9
373.15 K, 500 kPa | 964.6 | 970.7 | 976.6 | 982.1
373.15 K, 1000 kPa | 964.9 | 970.9 | 976.9 | 982.4
373.15 K, 2000 kPa | 965.3 | 971.4 | 977.4 | 982.8
373.15 K, 5000 kPa | 966.7 | 972.8 | 978.7 | 984.2
373.15 K, 10000 kPa | 969 | 975 | 981.1 | 986.5
373.15 K, 15000 kPa | 971.2 | 977.2 | 983.4 | 988.8
373.15 K, 20000 kPa | 973.5 | 979.5 | 985.6 | 991.1
373.15 K, 30000 kPa | 977.9 | 983.9 | 989.8 | 995.5
373.15 K, 40000 kPa | 982.1 | 988.2 | 994.1 | 999.8
373.15 K, 50000 kPa | 986.2 | 992.1 | 998.1 | 1003.7
373.15 K, 60000 kPa | 990.1 | 996.1 | 1002.1 | 1007.7
373.15 K, 70000 kPa | 994.2 | 1000 | 1005.9 | 1011.6
373.15 K, 80000 kPa | 998.1 | 1003.8 | 1009.8 | 1015.4
373.15 K, 90000 kPa | 1001.8 | 1007.4 | 1013.3 | 1019
373.15 K, 100000 kPa | 1005.3 | 1011.1 | 1017 | 1022.6
373.15 K, 110000 kPa | 1009 | 1014.7 | 1020.5 | 1026.2
373.15 K, 120000 kPa | 1012.6 | 1018.3 | 1024 | 1029.7
373.15 K, 130000 kPa | 1016 | 1021.5 | 1027.4 | 1033
373.15 K, 140000 kPa | 1019.4 | 1025 | 1030.7 | 1036.3
393.15 K, 100 kPa | 948.6 | 954 | 959.6 | 964.2
393.15 K, 500 kPa | 949 | 954.4 | 959.9 | 964.7
393.15 K, 1000 kPa | 949.2 | 954.6 | 960.1 | 964.8
393.15 K, 2000 kPa | 949.6 | 955.2 | 960.6 | 965.4
393.15 K, 5000 kPa | 951.1 | 956.7 | 962.1 | 966.9
393.15 K, 10000 kPa | 953.6 | 959.2 | 964.7 | 969.5
393.15 K, 15000 kPa | 956 | 961.6 | 967.1 | 972
393.15 K, 20000 kPa | 958.5 | 964 | 969.6 | 974.5
393.15 K, 30000 kPa | 963 | 968.5 | 974.2 | 979.2
393.15 K, 40000 kPa | 967.6 | 973.1 | 978.7 | 983.9
393.15 K, 50000 kPa | 971.8 | 977.3 | 983 | 988.1
393.15 K, 60000 kPa | 976.2 | 981.7 | 987.4 | 992.5
393.15 K, 70000 kPa | 980.4 | 985.9 | 991.6 | 996.8
393.15 K, 80000 kPa | 984.3 | 989.8 | 995.4 | 1000.8
393.15 K, 90000 kPa | 988.3 | 993.7 | 999.4 | 1004.6
393.15 K, 100000 kPa | 992.1 | 997.5 | 1003.1 | 1008.5
393.15 K, 110000 kPa | 995.9 | 1001.4 | 1006.9 | 1012.3
393.15 K, 120000 kPa | 999.6 | 1005 | 1010.6 | 1015.9
393.15 K, 130000 kPa | 1003.1 | 1008.5 | 1014.1 | 1019.4
393.15 K, 140000 kPa | 1006.7 | 1012 | 1017.6 | 1023

viscosity [mPa·s]
Settings | w1 = 0.1 | w1 = 0.2 | w1 = 0.2002 | w1 = 0.3 | w1 = 0.4
333.15 K, 80000 kPa, Falling or rolling sphere viscometry | 0.661 | – | 0.942 | 1.4 | 2.134
333.15 K, 100000 kPa, Falling or rolling sphere viscometry | 0.672 | – | 0.967 | 1.435 | 2.206
333.15 K, 120000 kPa, Falling or rolling sphere viscometry | 0.68 | – | 0.982 | 1.468 | 2.28
353.15 K, 93 kPa, Concentric cylinders viscometry | – | 0.6205 | – | 0.8505 | 1.186
353.15 K, 100 kPa, Falling or rolling sphere viscometry | – | 0.617 | 0.617 | 0.854 | 1.181
353.15 K, 5000 kPa, Falling or rolling sphere viscometry | – | – | 0.62 | 0.862 | 1.193
353.15 K, 10000 kPa, Falling or rolling sphere viscometry | – | – | 0.625 | 0.869 | 1.204
353.15 K, 20000 kPa, Falling or rolling sphere viscometry | – | – | 0.633 | 0.881 | 1.229
353.15 K, 30000 kPa, Falling or rolling sphere viscometry | – | – | 0.64 | 0.894 | 1.253
353.15 K, 40000 kPa, Falling or rolling sphere viscometry | – | – | 0.647 | 0.907 | 1.276
353.15 K, 60000 kPa, Falling or rolling sphere viscometry | – | – | 0.661 | 0.932 | 1.322
353.15 K, 80000 kPa, Falling or rolling sphere viscometry | – | – | 0.675 | 0.959 | 1.368
353.15 K, 100000 kPa, Falling or rolling sphere viscometry | – | – | 0.691 | 0.997 | 1.419
353.15 K, 120000 kPa, Falling or rolling sphere viscometry | – | – | 0.705 | 1.018 | 1.467

— the NIST ThermoML archive (doi:10.1016/j.jct.2016.03.021)
